Patent US10047051B2, “Substituted pyridines and method of use” (AbbVie S.á{acute over (.)}r.l., priority 2015, dated 2018)

Columns and labels:
CFTR ΔF508 mutant = target: T1, CFTR ΔF508 mutant (Homo sapiens, UniProt P13569, DEL508-508); experiment: YFP-halide influx assay for the CFTR-ΔF508 mutation (CFBE41o- cells); type: cell-based; settings: forskolin 10.67 μM; for EC50: from (1−F/F0) vs concentration plot
T1 construct: expressed in transfected cells; host or cells: CFBE41o- cells, adenoviral transduction
Method in brief: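 CFBE41o- cells transduced with adenovirus expressing CFTR ΔF508 and halide-sensitive YFP H148Q/I152L/F47L, then held 24 h at 27° C or with a CFTR modulator 24 h at 37° C. Iodide-induced quench recorded 2 min; EC50 from (1−F/F0) at 36 s versus concentration.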

CFTR G551D mutant = target: T2, CFTR G551D mutant (Homo sapiens, UniProt P13569, G551D); experiment: YFP-halide influx assay for the CFTR-G551D mutation (HEK293 cells); type: cell-based; settings: forskolin 10.67 μM
T2 construct: expressed in transfected cells; host or cells: HEK293 cells, reverse transfection with plasmids
Method in brief: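 HEK293 cells reverse-transfected with CFTR G551D and halide-sensitive YFP (H148Q/I152L/F47L), expressed 24 h at 37 °C. YFP fluorescence quenching recorded for 7 s after I⁻ injection. Response = 1−F/F0; EC50 derived from 1−F/F0 vs compound concentration.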

T1 sequence (P13569 with tags, fused parts or gaps DEL508-508): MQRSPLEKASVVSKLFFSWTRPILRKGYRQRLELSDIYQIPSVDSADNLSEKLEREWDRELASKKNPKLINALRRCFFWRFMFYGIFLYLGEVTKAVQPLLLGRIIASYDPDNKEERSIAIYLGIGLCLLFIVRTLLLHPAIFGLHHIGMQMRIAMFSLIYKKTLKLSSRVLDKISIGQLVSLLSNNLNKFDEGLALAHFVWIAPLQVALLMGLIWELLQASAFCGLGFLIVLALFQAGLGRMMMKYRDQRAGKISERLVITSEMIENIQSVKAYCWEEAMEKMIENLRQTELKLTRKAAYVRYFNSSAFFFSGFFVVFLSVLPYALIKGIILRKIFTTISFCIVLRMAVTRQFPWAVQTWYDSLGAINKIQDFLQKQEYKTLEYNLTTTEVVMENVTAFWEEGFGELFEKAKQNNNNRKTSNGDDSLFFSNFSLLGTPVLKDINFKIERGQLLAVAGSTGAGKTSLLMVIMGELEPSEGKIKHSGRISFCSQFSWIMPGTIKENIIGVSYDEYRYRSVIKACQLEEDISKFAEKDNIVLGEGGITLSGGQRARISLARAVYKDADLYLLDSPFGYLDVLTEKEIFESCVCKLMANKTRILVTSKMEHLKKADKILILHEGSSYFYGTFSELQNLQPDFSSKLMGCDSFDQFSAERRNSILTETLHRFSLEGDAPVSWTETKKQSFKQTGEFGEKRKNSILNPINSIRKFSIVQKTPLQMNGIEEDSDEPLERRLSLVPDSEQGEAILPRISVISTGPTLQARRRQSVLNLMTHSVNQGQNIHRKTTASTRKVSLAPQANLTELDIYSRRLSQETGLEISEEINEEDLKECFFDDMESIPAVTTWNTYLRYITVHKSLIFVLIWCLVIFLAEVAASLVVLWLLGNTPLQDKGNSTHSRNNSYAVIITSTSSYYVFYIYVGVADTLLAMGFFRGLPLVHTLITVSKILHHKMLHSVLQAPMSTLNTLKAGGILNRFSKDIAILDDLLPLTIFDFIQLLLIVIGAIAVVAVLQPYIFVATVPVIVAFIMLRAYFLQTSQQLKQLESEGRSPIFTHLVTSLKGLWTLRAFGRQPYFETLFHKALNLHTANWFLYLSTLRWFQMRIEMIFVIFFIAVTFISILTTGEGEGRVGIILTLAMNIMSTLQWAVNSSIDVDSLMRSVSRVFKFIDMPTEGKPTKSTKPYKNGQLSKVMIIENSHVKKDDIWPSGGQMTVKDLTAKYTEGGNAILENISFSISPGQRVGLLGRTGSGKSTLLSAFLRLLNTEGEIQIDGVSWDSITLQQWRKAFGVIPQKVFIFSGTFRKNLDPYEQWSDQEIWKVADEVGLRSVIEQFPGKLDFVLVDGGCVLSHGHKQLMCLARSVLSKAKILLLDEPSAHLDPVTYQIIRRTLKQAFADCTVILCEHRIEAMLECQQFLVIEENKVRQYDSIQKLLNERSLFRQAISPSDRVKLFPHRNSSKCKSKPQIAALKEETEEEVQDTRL
T2 sequence (P13569 whole entry G551D): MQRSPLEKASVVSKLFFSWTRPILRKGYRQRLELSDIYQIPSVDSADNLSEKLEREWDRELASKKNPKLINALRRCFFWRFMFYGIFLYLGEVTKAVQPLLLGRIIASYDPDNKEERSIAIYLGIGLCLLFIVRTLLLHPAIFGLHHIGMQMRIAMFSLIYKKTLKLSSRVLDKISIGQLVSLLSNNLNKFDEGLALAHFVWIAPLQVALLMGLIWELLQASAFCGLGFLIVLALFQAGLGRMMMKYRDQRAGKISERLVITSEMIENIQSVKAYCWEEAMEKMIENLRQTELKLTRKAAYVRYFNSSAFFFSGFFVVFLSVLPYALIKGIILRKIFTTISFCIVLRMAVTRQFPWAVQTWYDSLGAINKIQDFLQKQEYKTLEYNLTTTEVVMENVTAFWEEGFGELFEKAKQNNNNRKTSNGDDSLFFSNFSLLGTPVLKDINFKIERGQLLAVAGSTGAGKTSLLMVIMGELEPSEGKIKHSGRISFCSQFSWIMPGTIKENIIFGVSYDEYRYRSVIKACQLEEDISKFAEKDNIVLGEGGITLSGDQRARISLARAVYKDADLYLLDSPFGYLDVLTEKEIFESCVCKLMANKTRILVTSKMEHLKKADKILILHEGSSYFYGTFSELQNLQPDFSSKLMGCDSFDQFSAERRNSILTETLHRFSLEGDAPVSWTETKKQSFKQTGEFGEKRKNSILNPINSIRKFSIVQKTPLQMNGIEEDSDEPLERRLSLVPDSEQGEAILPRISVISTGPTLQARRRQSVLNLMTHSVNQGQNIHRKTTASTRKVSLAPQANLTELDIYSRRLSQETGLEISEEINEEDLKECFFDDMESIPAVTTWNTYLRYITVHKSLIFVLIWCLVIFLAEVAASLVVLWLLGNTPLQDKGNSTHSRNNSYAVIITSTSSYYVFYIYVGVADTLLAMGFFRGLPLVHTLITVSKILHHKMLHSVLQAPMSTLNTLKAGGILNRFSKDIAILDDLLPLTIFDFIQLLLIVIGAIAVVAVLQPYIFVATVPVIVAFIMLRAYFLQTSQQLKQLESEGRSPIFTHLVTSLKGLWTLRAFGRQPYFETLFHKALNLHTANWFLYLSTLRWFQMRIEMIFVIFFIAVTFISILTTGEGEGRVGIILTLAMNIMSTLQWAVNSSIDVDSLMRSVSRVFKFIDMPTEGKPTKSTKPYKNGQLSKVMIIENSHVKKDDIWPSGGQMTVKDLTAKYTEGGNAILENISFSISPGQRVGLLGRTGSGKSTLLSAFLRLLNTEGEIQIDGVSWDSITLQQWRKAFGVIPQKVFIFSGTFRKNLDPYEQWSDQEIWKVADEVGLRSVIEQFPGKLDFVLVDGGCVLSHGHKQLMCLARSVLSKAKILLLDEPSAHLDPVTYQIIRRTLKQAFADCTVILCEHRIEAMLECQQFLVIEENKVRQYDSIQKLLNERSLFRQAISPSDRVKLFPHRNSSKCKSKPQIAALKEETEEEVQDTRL

% Activation (CFTR ΔF508 mutant) [%] | EC50 (CFTR ΔF508 mutant) [nM] | % Activation (CFTR G551D mutant) [%] | EC50 (CFTR G551D mutant) [nM] | Compound
59.3 | > 667 | 0.9 | > 10000 | C[C@H](O)CNC(=O)c1ncc(S(=O)(=O)NCc2ccc(F)cc2)cc1N [Compound 267, 3-amino-5-[(4-fluorobenzyl)sulfamoyl]-N-[(2S)-2-hydroxypropyl]pyridine-2-carboxamide]
95.1 | 6.3 | 67.0 | 1620 | C[C@H](O)CNC(=O)c1nc(Oc2cccc(F)c2)c(S(=O)(=O)c2ccc(OC(F)(F)F)cc2)cc1N [Compound 284, 3-amino-6-(3-fluorophenoxy)-N-[(2S)-2-hydroxypropyl]-5-{[4-(trifluoromethoxy)phenyl]sulfonyl}pyridine-2-carboxamide]
92.6 | 47.3 | 57.3 | 1270 | Nc1cc(S(=O)(=O)c2ccc(OC(F)(F)F)cc2)cnc1C(=O)N1CCC(F)(F)C1 [Compound 203, (3-amino-5-{[4-(trifluoromethoxy)phenyl]sulfonyl}pyridin-2-yl)(3,3-difluoropyrrolidin-1-yl)methanone]
105.0 | 12 | 91.1 | 385 | Nc1cc(S(=O)(=O)c2ccc(C(F)(F)F)cc2)cnc1C(=O)NC[C@@H](O)COCC(F)(F)F [Compound 248, 3-amino-N-[(2R)-2-hydroxy-3-(2,2,2-trifluoroethoxy)propyl]-5-{[4-(trifluoromethyl)phenyl]sulfonyl}pyridine-2-carboxamide]
114.1 | 21.6 | 65.0 | 1430 | CC1(C)CN(S(=O)(=O)c2cnc(C(=O)NCC(O)C(F)(F)F)c(N)c2)C1 (stereo not drawn) [Compound 199, 3-amino-5-[(3,3-dimethylazetidin-1-yl)sulfonyl]-N-(3,3,3-trifluoro-2-hydroxypropyl)pyridine-2-carboxamide]
44.6 | > 667 | 5.8 | > 10000 | CN1CC(NC(=O)c2ncc(S(=O)(=O)c3ccc(OC(F)(F)F)cc3)cc2N)C1 [Compound 210, 3-amino-N-(1-methylazetidin-3-yl)-5-{[4-(trifluoromethoxy)phenyl]sulfonyl}pyridine-2-carboxamide]
111.5 | 8.3 | 99.0 | 639 | CC(C)OC[C@@H](O)CNC(=O)c1ncc(S(=O)(=O)c2ccc(C(F)(F)F)cc2)cc1N [Compound 243, 3-amino-N-[(2S)-2-hydroxy-3-(propan-2-yloxy)propyl]-5-{[4-(trifluoromethyl)phenyl]sulfonyl}pyridine-2-carboxamide]
11.9 | > 2000 | 1.4 | > 10000 | Nc1cc(S(=O)(=O)c2ccc(C(F)(F)F)cc2)cnc1C(=O)N1CCC[C@H]1CO [Compound 226, (3-amino-5-{[4-(trifluoromethyl)phenyl]sulfonyl}pyridin-2-yl)[(2S)-2-(hydroxymethyl)pyrrolidin-1-yl]methanone]
79.7 | 88.1 | 26.8 | – | COCC(=O)NNC(=O)c1ncc(S(=O)(=O)c2ccc(OC(F)(F)F)cc2)cc1N [Compound 286, 3-amino-N′-(methoxyacetyl)-5-{[4-(trifluoromethoxy)phenyl]sulfonyl}pyridine-2-carbohydrazide]
106.0 | 5 | 56.0 | 1450 | Nc1cc(S(=O)(=O)c2cccc(F)c2)cnc1C(=O)NC[C@@H](O)C(F)(F)F [Compound 254, 3-amino-5-[(3-fluorophenyl)sulfonyl]-N-[(2R)-3,3,3-trifluoro-2-hydroxypropyl]pyridine-2-carboxamide]
96.4 | 49 | 19.0 | > 10000 | Nc1cc(S(=O)(=O)c2ccc(C(F)(F)F)cc2)cnc1C(=O)NCC1CC1 [Compound 223, 3-amino-N-(cyclopropylmethyl)-5-{[4-(trifluoromethyl)phenyl]sulfonyl}pyridine-2-carboxamide]
118.0 | 3.9 | 106.0 | 391 | CC(C)c1ccc(S(=O)(=O)c2cnc(C(=O)NCC(O)C(F)(F)F)c(N)c2)cc1 (stereo not drawn) [Compound 246, 3-amino-5-{[4-(propan-2-yl)phenyl]sulfonyl}-N-(3,3,3-trifluoro-2-hydroxypropyl)pyridine-2-carboxamide]

Second part, the compound before the results:

Compound | % Activation (CFTR ΔF508 mutant) [%] | EC50 (CFTR ΔF508 mutant) [nM] | % Activation (CFTR G551D mutant) [%] | EC50 (CFTR G551D mutant) [nM]
Nc1cc(S(=O)(=O)c2ccc(OC(F)(F)F)cc2)cnc1C(=O)N[C@@H]1CCOc2ccccc21 [Compound 145, 3-amino-N-[(4R)-3,4-dihydro-2H-chromen-4-yl]-5-{[4-(trifluoromethoxy)phenyl]sulfonyl}pyridine-2-carboxamide] | 98.8 | 205 | 53.9 | 836
CC1CCOCC1CNC(=O)c1ncc(S(=O)(=O)c2ccc(OC(F)(F)F)cc2)cc1N (stereo not drawn) [Compound 156, 3-amino-N-[(4-methyltetrahydro-2H-pyran-3-yl)methyl]-5-{[4-(trifluoromethoxy)phenyl]sulfonyl}pyridine-2-carboxamide] | 94.0 | 238 | 63.5 | 1390
Nc1cc(S(=O)(=O)c2ccc(C(F)(F)F)cc2F)cnc1C(=O)NC[C@@H](O)C(F)(F)F [Compound 107, 3-amino-5-{[2-fluoro-4-(trifluoromethyl)phenyl]sulfonyl}-N-[(2R)-3,3,3-trifluoro-2-hydroxypropyl]pyridine-2-carboxamide] | 103.0 | 1.5 | 81.7 | 164
CC(C)(O)C1CN(C(=O)c2ncc(S(=O)(=O)c3ccc(OC(F)(F)F)cc3F)cc2N)C1 [Compound 174, (3-amino-5-{[2-fluoro-4-(trifluoromethoxy)phenyl]sulfonyl}pyridin-2-yl)[3-(2-hydroxypropan-2-yl)azetidin-1-yl]methanone] | 118.3 | 5.9 | 50.3 | 371
CC(C)C1(O)CN(C(=O)c2ncc(S(=O)(=O)c3ccc(C(F)(F)F)cc3F)cc2N)C1 [Compound 162, (3-amino-5-{[2-fluoro-4-(trifluoromethyl)phenyl]sulfonyl}pyridin-2-yl)[3-hydroxy-3-(propan-2-yl)azetidin-1-yl]methanone] | 101.8 | 2.7 | 68.0 | 255
Nc1cc(S(=O)(=O)c2ccc(OC(F)(F)F)cc2)cnc1C(=O)NC1COC2(CCCC2)C1 (stereo not drawn) [Compound 150, 3-amino-N-(1-oxaspiro[4.4]non-3-yl)-5-{[4-(trifluoromethoxy)phenyl]sulfonyl}pyridine-2-carboxamide] | 116.0 | 355 | 49.7 | 1070
Nc1cc(S(=O)(=O)c2ccc(OC(F)(F)F)cc2)cnc1C(=O)NC1COC2(CCCCC2)C1 (stereo not drawn) [Compound 149, 3-amino-N-(1-oxaspiro[4.5]dec-3-yl)-5-{[4-(trifluoromethoxy)phenyl]sulfonyl}pyridine-2-carboxamide] | 91.2 | 179 | 42.7 | > 1670
Nc1cc(S(=O)(=O)c2ccc(OC(F)(F)F)cc2)cnc1C(=O)N1CC(F)C1 [Compound 67, (3-amino-5-{[4-(trifluoromethoxy)phenyl]sulfonyl}pyridin-2-yl)(3-fluoroazetidin-1-yl)methanone] | 110.0 | 25.8 | 73.6 | 1590
Nc1cc(S(=O)(=O)c2ccc(C(F)(F)F)cc2)cnc1C(=O)NC[C@@H]1CCOC1 [Compound 102, 3-amino-N-[(3S)-tetrahydrofuran-3-ylmethyl]-5-{[4-(trifluoromethyl)phenyl]sulfonyl}pyridine-2-carboxamide] | 119.0 | 28.2 | 73.6 | 1360
Nc1cc(S(=O)(=O)c2ccc(OC(F)(F)F)cc2)cnc1C(=O)NCC1(CO)CC1 [Compound 22, 3-amino-N-{[1-(hydroxymethyl)cyclopropyl]methyl}-5-{[4-(trifluoromethoxy)phenyl]sulfonyl}pyridine-2-carboxamide] | 102.2 | 54.1 | 53.2 | 778
CC(C)CNC(=O)c1ncc(S(=O)(=O)c2ccc(C(F)(F)F)cc2)cc1N [Compound 189, 3-amino-N-(2-methylpropyl)-5-{[4-(trifluoromethyl)phenyl]sulfonyl}pyridine-2-carboxamide] | 99.9 | 112 | 30.7 | > 10000
Nc1cc(S(=O)(=O)c2ccc(OC(F)(F)F)cc2F)cnc1C(=O)N1CC(O)C1 [Compound 77, (3-amino-5-{[2-fluoro-4-(trifluoromethoxy)phenyl]sulfonyl}pyridin-2-yl) (3-hydroxyazetidin-1-yl)methanone] | 98.8 | 15.3 | 41.0 | > 3330
CC(C)CC(O)CNC(=O)c1ncc(S(=O)(=O)c2ccc(OC(F)(F)F)cc2)cc1N (stereo not drawn) [Compound 87, 3-amino-N-(2-hydroxy-4-methylpentyl)-5-{[4-(trifluoromethoxy)phenyl]sulfonyl}pyridine-2-carboxamide] | 102.0 | 11.9 | 67.5 | 997
